This passage reports Ki results from patent US7446104B2, “Phenylalkynes” (Ortho-McNeil Pharmaceutical, Inc., priority 2001, dated 2008).

SMILES strings stand for the structures.

Broadly, the Ki is the dissociation constant of the complex between target and ligand, obtained from inhibition or displacement.

For the test, the target named is T1, human histamine H3 receptor (Homo sapiens, UniProt Q9Y5N1).
T1 construct: One microgram of supercoiled H3 receptor cDNA was added to the cells and mixed; expressed in transfected cells; membranes prepared from cell pellets
The experiment in a line: [3H]-N-methylhistamine binding. To be noted: membranes of histamine H3 receptor-expressing SK-N-MC cells; 0.8 nM [3H]-N-methylhistamine; 45 min at 25° C.; read-out: Ki. Here is the method:
Transfection of Cells with Human Histamine Receptor
A 10 cm tissue culture dish with a confluent monolayer of SK-N-MC cells was split two days prior to transfection. Using sterile technique the media were removed and the cells were detached from the dish by the addition of trypsin. One fifth of the cells were then placed onto a new 10 cm dish. Cells were grown in a 37° C. incubator with 5% CO2 in Minimal Essential Media Eagle with 10% Fetal Bovine Serum. After two days cells were approximately 80% confluent. These were removed from the dish with trypsin and pelleted in a clinical centrifuge. The pellet was then re-suspended in 400 μL complete media and transferred to an electroporation cuvette with a 0.4 cm gap between the electrodes. One microgram of supercoiled H3 receptor cDNA was added to the cells and mixed. The voltage for the electroporation was set at 0.25 kV, the capacitance was set at 960 μF. After electroporation the cells were diluted into 10 mL complete media and plated onto four 10 cm dishes. Because of the variability in the efficiency of electroporation, four different concentrations of cells were plated. The ratios used were; 1:20, 1:10, 1:5, with the remainder of the cells being added to the fourth dish. The cells were allowed to recover for 24 hours before adding the selection media (complete media with 600 μg/mL G418). After 10 days dishes were analyzed for surviving colonies of cells. Dishes with well isolated colonies were used. Cells from individual colonies were isolated and tested. SK-N-MC cells were used because they give efficient coupling for inhibition of adenylate cyclase. The clones that gave the most robust inhibition of adenylate cyclase in response to histamine were used for further study.
[^3H]-N-methylhistamine Binding
Cell pellets from histamine H3 receptor-expressing SK-N-MC cells were homogenized in 20 mM Tris HCl/0.5 mM EDTA. Supernatants from a 800 g spin were collected, recentrifuged at 30,000 g for 30 min. Pellets were re-homogenized in 50 mM Tris/5 mM EDTA (pH 7.4). Membranes were incubated with 0.8 nM [^3H]-N-methylhistamine plus/minus test compounds for 45 min at 25° C. and harvested by rapid filtration over GF/C glass fiber filters (pretreated with 0.3% polyethylenimine) followed by four washes with ice cold buffer. Filters were dried, added to 4 mL scintillation cocktail and then counted on a liquid scintillation counter. Non-specific binding was defined with 10 μM histamine.

T1 sequence (Q9Y5N1 whole entry): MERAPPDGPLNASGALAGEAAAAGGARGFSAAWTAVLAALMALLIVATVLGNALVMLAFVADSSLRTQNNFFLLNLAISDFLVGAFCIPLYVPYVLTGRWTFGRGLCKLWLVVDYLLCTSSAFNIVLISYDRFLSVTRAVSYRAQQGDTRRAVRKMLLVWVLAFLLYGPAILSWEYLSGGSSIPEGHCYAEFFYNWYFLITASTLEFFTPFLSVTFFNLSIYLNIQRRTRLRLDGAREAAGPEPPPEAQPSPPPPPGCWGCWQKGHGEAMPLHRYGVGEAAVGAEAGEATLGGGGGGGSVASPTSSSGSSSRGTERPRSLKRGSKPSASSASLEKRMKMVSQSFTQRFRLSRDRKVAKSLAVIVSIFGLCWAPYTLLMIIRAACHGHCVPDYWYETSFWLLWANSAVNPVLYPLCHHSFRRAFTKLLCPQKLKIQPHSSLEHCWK

Turning to `C(#Cc1ccc(CNC2CCCCC2)cc1)CCN1CCCCC1` [Example 33, Cyclohexyl-[4-(4-piperidin-1-yl-but-1-ynyl)-benzyl]-amine], the Ki amounted to 0.5 nM.
